Laboratory results as given in US20030215462A1, “Use of UGT inhibitors to increase bioavailability” (priority 2001, published 2003).
“And” between values parts separate entries of the source, which are not always exact repeats. Equal values may be shown once.

Assays:
Assay type in all cases: biochemical
[1] = biological target: T1, UGT enzymes of human liver microsomes (Homo sapiens, UniProt P16662); assay: Inhibition of zidovudine glucuronidation in human liver microsomes; conditions: liver lot 062101
T1 construct: residual metabolism (percentage of control), zidovudine glucuronidation; other: liver lot 062101; residual metabolism (percentage of control), zidovudine glucuronidation; residual metabolism (percentage of control)
T1 sequence (P16662 1-529): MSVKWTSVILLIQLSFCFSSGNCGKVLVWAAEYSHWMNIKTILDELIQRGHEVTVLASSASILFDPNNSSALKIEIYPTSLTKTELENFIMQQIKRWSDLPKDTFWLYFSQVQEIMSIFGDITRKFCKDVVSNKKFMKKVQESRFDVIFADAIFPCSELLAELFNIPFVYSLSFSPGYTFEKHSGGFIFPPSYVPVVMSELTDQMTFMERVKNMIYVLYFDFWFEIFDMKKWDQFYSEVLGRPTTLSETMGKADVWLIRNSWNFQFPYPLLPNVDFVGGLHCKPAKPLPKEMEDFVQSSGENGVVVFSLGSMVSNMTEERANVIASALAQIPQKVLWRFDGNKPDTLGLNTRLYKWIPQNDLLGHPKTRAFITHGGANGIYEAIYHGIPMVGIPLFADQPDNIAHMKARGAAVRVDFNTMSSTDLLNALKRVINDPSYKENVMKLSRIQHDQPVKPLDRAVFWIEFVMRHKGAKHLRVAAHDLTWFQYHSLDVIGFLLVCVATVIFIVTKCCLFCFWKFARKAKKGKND
Experimental: Compounds were eluted using a binary solvent gradient system where solvent A was dilute phosphoric acid (pH 3) and solvent B was acetonitrile.
Standardized incubations utilized 500 μM zidovudine substrate, 1 mg/ml microsomal protein, 5 mM UDPGA and a 30 min incubation time. […] Int.

[2] = system: T2, UGT enzymes of human liver microsomes; assay: Inhibition of 7-HFC glucuronidation in human liver microsomes; conditions: 7-HFC 50 μM, human liver microsomes 100 μg/ml, 15 min
T2 construct: percentage of control metabolism, 7-HFC glucuronidation; percentage of control metabolism, 7-HFC glucuronidation

[3] = system: T3, UGT enzymes of human liver microsomes; assay: Inhibition of labetalol glucuronidation (LG1, LG2) in human liver microsomes; conditions: labetalol 50 μM; inhibitor 100 μM
T3 construct: residual metabolism (percentage of control), labetalol LG1; other: labetalol 50 μM; residual metabolism (percentage of control), labetalol LG1; residual metabolism (percentage of control), labetalol LG2; inhi
Experimental: Supernatants were analyzed by HPLC with fluorescence detection.
Compounds were eluted using a binary solvent gradient system where solvent A was 5:5:90 tetrahydrofuran-acetonitrile-(NH4)2HPO4 50 mM, while solvent B was 25:25:50 tetrahydrofuran-acetonitrile-(NH4)2HPO4 50 mM. Solvent flow rate was 0.75 ml/min and the column temperature was ambient. […] Labetalol and metabolites were measured by fluorescence detection using a Jasco model FP920 detector. Excitation and emission wavelengths were 370 nm 418 nm respectively. Retention times for salicylamide internal standard and labetalol were 6.6 min and 15.0 min respectively.

[4] = system: UGT enzymes of human liver microsomes; assay: Inhibition of raloxifene glucuronidation (G1, G2) in human liver microsomes; conditions: raloxifene 50 μM, human liver microsomes 250 μg/ml, 15 min
Excerpt: Compounds were eluted using a binary solvent gradient system. […] Solvent B was methanol. […] Detection was at 280 nm.

[5] = system: T4, UGT enzymes of human liver microsomes; assay: Inhibition of 2ME2 glucuronidation (MG1, MG2) in human liver microsomes; conditions: liver 062101, 2ME2 50 μM
T4 construct: other: liver 062101
Excerpt: (§1) Compounds were eluted using a binary solvent gradient system where solvent A was dilute phosphoric acid (pH 3) and solvent B was 80:20 acetonitrile-methanol. […] Detection was at 280 nm.

[6] = system: UGT enzymes of pooled human jejunum microsomes; assay: Inhibition of 2ME2 glucuronidation (MG1) in pooled human jejunum microsomes; conditions: jejunum HJ61, 2ME2 50 μM
Excerpt: as §1

## Oc1cc(O)c2c(c1)O[C@H](c1cc(O)c(O)c(O)c1)[C@H](O)C2 [Epigallocatechin]
[1]; inhibitor 500 μM
  residual metabolism (percentage of control), zidovudine glucuronidation: 90 (3) %
[2]; inhibitor 100 μM
  % of control metabolism (SD, n = 3), 7-HFC glucuronidation: 77 (1) %
[2]; inhibitor 200 μM
  % of control metabolism (SD, n = 3), 7-HFC glucuronidation: 90 (1) %
[2]; inhibitor 500 μM
  % of control metabolism (SD, n = 3), 7-HFC glucuronidation: 81 (4) %
[3]
  residual metabolism (percentage of control), labetalol LG1: 96 (7) %
  residual metabolism (percentage of control), labetalol LG2: 87 (5) %
[4]; inhibitor 500 μM
  % of control metabolism (SD, n = 3), raloxifene glucuronide G1: 65 (4) %
  % of control metabolism (SD, n = 3), raloxifene glucuronide G2: 79 (4) %

## O=C1C[C@@H](c2ccc(O)cc2)Oc2cc(O)cc(O)c21 [Naringenin]
[1]; inhibitor 200 μM
  residual metabolism (percentage of control), zidovudine glucuronidation: 64 (3) %
[1]; inhibitor 500 μM
  residual metabolism (percentage of control), zidovudine glucuronidation: 48 (7) % and 34 (4) %
[1]; inhibitor 1000 μM
  residual metabolism (percentage of control), zidovudine glucuronidation: 15 (3) %
[5]; inhibitor 25 μM
  residual metabolism (% of control), 2ME2 MG1: 76 (1) %
  residual metabolism (% of control), 2ME2 MG2: 53 (4) %
[5]; inhibitor 50 μM
  residual metabolism (% of control), 2ME2 MG1: 47 (3) %
  residual metabolism (% of control), 2ME2 MG2: 26 (5) %
[5]; inhibitor 100 μM
  residual metabolism (% of control), 2ME2 MG1: 21 (4) %
  residual metabolism (% of control), 2ME2 MG2: 19 (0) %
[6]; inhibitor 50 μM
  residual metabolism (% of control), 2ME2 MG1: 78 (2) %
[6]; inhibitor 100 μM
  residual metabolism (% of control), 2ME2 MG1: 79 (5) %
[2]; inhibitor 500 μM
  % of control metabolism (SD, n = 3), 7-HFC glucuronidation: 63 (1) %
[4]; inhibitor 50 μM
  % of control metabolism (SD, n = 3), raloxifene glucuronide G1: 54 (4) %
  % of control metabolism (SD, n = 3), raloxifene glucuronide G2: 71 (9) %
[4]; inhibitor 100 μM
  % of control metabolism (SD, n = 3), raloxifene glucuronide G1: 34 (2) %
  % of control metabolism (SD, n = 3), raloxifene glucuronide G2: 40 (2) %
